Reference: patent US7531575B2, “Method of modulating cellular activity and agents useful for same” (Eberhard-Karls-Universität Tübingin, priority 2002, dated 2009)

Key:
Assay type in all cases: cell-based, murine
[1] = tested on: iNOS; test: iNOS activity by Griess assay (NO2 release), IFN-γ-stimulated N9 microglia; conditions: N9 cells, IFN-γ 200 u ml, 48 h
Experimental: (§1) Tranilast was a generous gift of Kissei Pharmaceuticals (Nagano, Japan). Murine recombinant IFN-γ was purchased from Boehringer (Mannheim, Germany). Dexamethasone (DEX) was obtained from Sigma (Deisenhofen, Germany). N9 murine microglial cells were a kind gift from P. Ricciardi-Castagnoli (Milano, Italy) (Righi, M., Mori, L., De Libero, G., Sironi, M., Biondi, A., Mantovani, A., Donini, S. D. and Ricciardi-Castagnoli, P. Eur J Immunol 19(8):1443-1448, 1989). The cells were cultured in Dulbecco's modified Eagle's medium (DMEM) supplemented with 10% foetal calf serum (FCS), 2 mM glutamine and penicillin ([…])/streptomycin (100 μg ml), and maintained at 37° C. in an atmosphere of 5% CO2. Viability was assessed by crystal violet staining.
iNOS activity was assessed by the Griess assay as described elsewhere (Rieger, J., Stander, M., Loschmann, P. A., Heneka, M., Dichgans, J., Klockgether, T. and Weller, M., Oncogene, 17:2323-2332, 1998). Briefly, conditioned supernatant (100 μl) was incubated with an equal volume of 1% sulphanilamide/0.1% naphthyl ethylene diamine dihydrochloride/2.5% H3PO4 (Griess reagent) (Green, L. C., Wagner, D. A., Glogowski, J., Skipper, P. I., Wishnok, J. S, and Tannenbaum, S. R., Anal. Biochem., 126:131-138, 1982), incubated for 5 min at room temperature, and the absorbance at […] determined. Solutions of NaNO2 diluted in DMEM served as standards. The absorbance readings resulting from DMEM alone were subtracted from the sample values. Cell density was assessed using crystal violet staining to control for differences in cell proliferation. iNOS activity is thus expressed here as NO2 accumulated per 48 h per 10^5 cells.

[2] = tested on: iNOS mRNA; test: iNOS mRNA Northern blot, IFN-γ-stimulated N9 microglia; conditions: N9 cells, IFN-γ 200 u ml, 24 h, tranilast 300 μM
Experimental: as §1
Total RNA was isolated using the RNeasy kit (Qiagen, Hilden, Germany). Total RNA ([…]) was separated on 1.2% agarose gels and blotted onto nylon membranes (Amersham). The filters were hybridized according to standard procedures (Platten, M., Wild-Bode, C., Wick, W., Leitlein, J., Dichgans, J., and Weller, M., Int. J. Cancer, 93:53-61, 2001) with a ^32P-labelled murine cDNA probe for iNOS. For the generation of the iNOS probe, N9 cells were stimulated with IFN-γ ([…]) for 24 h. […]

[3] = tested on: iNOS; test: iNOS protein immunoblot, LPS-stimulated N9 microglia; conditions: TNL 300 μM
Source text: (§2) TNL was a generous gift of Kissei Pharmaceuticals, LPC (Escherichia coli, 0127:BS), phorbol 12-myristate 13-acetate (PMA) and dexamethasone (DEX) were obtained from Sigma, BAY 11-7082 (BAY), NF-κB SN50 inhibitory peptide (SN50), GF 109203X (GFX) and rottlerin (ROT) were purchased from Biomol. PD098059 (PD) was obtained from Calbiochem. Purified murine interferon-γ (IFN-γ) was purchased from Roche Diagnostics. N9 murine microglial cells were a kind gift from P. Ricciardi-Castagnoli (Righi, M. et al. 1989 supra). Cells were cultured in Dulbecco's modified Eagle's medium (DMEM) supplemented with 10% fetal calf serum (FCS), 2 mM glutamine, penicillin (100 unit/mL) and streptomycin (100 μg/mL) and maintained at 37° in an atmosphere of 5% CO2. Viability was assessed by crystal violet staining.
For the preparation of whole cell lysates, the cells were lysed in 0.1 M Tris-HCl (pH 7.2) containing 0.1% NP40, 0.1 mM EDTA and 5 μg/mL phenylmethylsulphonyl fluoride. Twenty micrograms protein was separated by 10-12% SDS-PAGE and electroblotted on nitrocellulose membrane. Equal loading was controlled by Ponceau S staining. Immunodetection was performed using the following antibodies: anti-iNOS rabbit polyclonal antibody (1:1000, Cayman), antiphospho-IκBα mouse monoclonal antibody (1:1000), anti-PKCδ mouse monoclonal antibody (1:2000), antiphospho-MARCKS rabbit polyclonal antibody (1:1000), antiphospho-ERK-1/2, antiphospho-AKT, antiphospho-p38 mouse monoclonal antibodies (1:2000), anti-ERK-1/2, anti-AKT mouse monoclonal antibodies (1:500, all from Signal Transduction Laboratories). Bands were visualized using horseradish peroxidase-conjugated anti-rabbit IgG (1:4000 SantaCruz) or anti-mouse IgG (1:4000, Amersham).

[4] = tested on: inhibitory-κB (I-κB); test: phospho-IκBα immunoblot, LPS-stimulated N9 microglia; conditions: N9 cells, 1 hr, TNL pre-incubation 1 hr
Source text: as §2
For the preparation of whole cell lysates, the cells were lysed in 0.1 M Tris-HCl (pH 7.2) containing 0.1% NP40, 0.1 mM EDTA and 5 μg/mL phenylmethylsulphonyl fluoride. Twenty micrograms protein was separated by 10-12% SDS-PAGE and electroblotted on nitrocellulose membrane. Equal loading was controlled by Ponceau S staining. […]

[5] = tested on: PKCδ; test: PKCδ translocation by immunocytochemistry in N9 microglia; conditions: N9 cells, PMA 100 nM, TNL 300 μM
Experimental: Cells grown on glass coverslips were serum-starved for 16 hr, kept in Krebs Ringer HEPES buffer (125 mM NaCl, 5 mM KCl, 1.2 mM MgSO4, 2 mM CaCl2, 1.2 mM KH2PO4, 6 mM glucose, 25 mM HEPES, pH 7.4) for 1 hr and left untreated or treated with PMA (100 nM) without or with pre-incubation (1 hr) with TNL (300 μM). After fixation in ice-cold (−20′) methanol for 20 min, the cells were washed with PBS and incubated for 15 min with 0.1% NaBH4 and 0.1 M glycine in PBS to block autofluorescence. Nonspecific antibody binding was blocked for 45 min with PBG (PBS with 0.045% fish gelatin) containing 5% normal goat serum and 1% bovine serum albumin. Incubation with anti-PKCδ antibody was carried out for 24 hr at 4° after dilution in PBG containing 5% normal goat serum. After four washes with PBG, primary antibody binding was detected with an isotype-specific secondary antibody conjugated with Alexa™546 fluorescent dye. The coverslips were mounted in PermaFluor (Immunotech). Localization of the proteins was examined using confocal laser microscopy (Leica).

COc1ccc(/C=C/C(=O)Nc2ccccc2C(=O)O)cc1OC [tranilast, 2-[[3-(3,4-dimethoxyphenyl)-1-oxo-2-propenyl]amino]benzoic acid]
inhibition of NO release ([1]; concentration series): concentration-dependent inhibition | reduction of NO release (NO2, Griess assay) ([1]; tranilast 300 μM): 65% | IFN-γ-induced iNOS mRNA expression [2]: greatly suppressed | accumulation of iNOS protein after LPS ([3]; N9 cells, LPS 10 μg/mL): suppressed | PMA superinduction of iNOS protein in LPS-stimulated cells ([3]; PMA 100 nM 15 min, LPS 10 μg/mL 24 hr): abolished | LPS-mediated phosphorylation of I-κB [4]: did not suppress | PMA-induced translocation of PKCδ from cytosol to nucleus [5]: abolished
